Experimental data: the NIST ThermoML archive (doi:10.1021/je020125e)

Details: 101.33 kPa, Liquid, Hot wire method

CCC(CC)CC [3-ethylpentane]
Details | thermal conductivity [W/m/K] | thermal diffusivity [m2/s]
257.28 K | 0.1253 | –
257.54 K | 0.1252 | –
257.83 K | 0.1251 | –
258.36 K | – | 8.28e-08
259.11 K | – | 8.26e-08
259.89 K | – | 8.25e-08
277.62 K | 0.119 | –
277.89 K | 0.1188 | –
278.19 K | 0.1187 | –
278.75 K | – | 7.78e-08
279.49 K | – | 7.73e-08
280.3 K | – | 7.72e-08
296.33 K | 0.1132 | –
296.62 K | 0.113 | –
296.78 K | 0.113 | –
297.48 K | – | 7.29e-08
298.26 K | – | 7.28e-08
298.69 K | – | 7.28e-08
313.96 K | 0.1081 | –
314.27 K | 0.1079 | –
314.58 K | 0.1078 | –
315.16 K | – | 6.95e-08
315.99 K | – | 6.93e-08
316.82 K | – | 6.9e-08
331.22 K | 0.1032 | –
331.29 K | 0.1029 | –
331.56 K | 0.1031 | –
332.45 K | – | 6.59e-08
333.34 K | – | 6.59e-08
334.2 K | – | 6.55e-08

CCC(C)(C)CC [3,3-dimethylpentane]
Details | thermal conductivity [W/m/K] | thermal diffusivity [m2/s]
256.11 K | 0.1116 | –
256.71 K | 0.1112 | –
256.82 K | – | 7.8e-08
257.04 K | 0.1113 | –
257.62 K | – | 7.76e-08
258.25 K | – | 7.71e-08
276.17 K | 0.106 | –
276.5 K | 0.1058 | –
276.78 K | 0.1057 | –
276.87 K | – | 7.25e-08
277.64 K | – | 7.2e-08
278.3 K | – | 7.18e-08
296.01 K | 0.1005 | –
296.03 K | 0.1006 | –
296.39 K | 0.1004 | –
296.63 K | 0.1002 | –
296.64 K | – | 6.59e-08
296.69 K | – | 6.66e-08
297.52 K | – | 6.68e-08
298.08 K | – | 6.59e-08
316.38 K | 0.09528 | –
316.67 K | 0.09499 | –
316.93 K | 0.09481 | –
317.05 K | – | 6.22e-08
317.7 K | – | 6.09e-08
318.3 K | – | 6.05e-08
333.75 K | 0.09074 | –
334.1 K | 0.09063 | –
334.37 K | 0.09047 | 5.74e-08
335.16 K | – | 5.76e-08
335.77 K | – | 5.74e-08

CC(C)C(C)C [2,3-dimethylbutane]
Details | thermal conductivity [W/m/K] | thermal diffusivity [m2/s]
256.81 K | 0.1128 | –
257.19 K | 0.1127 | –
257.69 K | 0.1125 | –
258.09 K | – | 7.87e-08
258.98 K | – | 7.85e-08
260.13 K | – | 7.79e-08
277.98 K | 0.1061 | –
278.38 K | 0.1059 | –
278.91 K | 0.1057 | –
279.29 K | – | 7.3e-08
280.19 K | – | 7.27e-08
281.39 K | – | 7.23e-08
297.63 K | 0.1 | –
298.06 K | 0.0999 | –
298.6 K | 0.09972 | –
298.95 K | – | 6.8e-08
299.9 K | – | 6.77e-08
301.09 K | – | 6.74e-08
318.11 K | 0.09429 | –
318.45 K | 0.09416 | –
319.06 K | 0.09398 | –
319.63 K | – | 6.39e-08
320.36 K | – | 6.35e-08
321.67 K | – | 6.31e-08
336.29 K | 0.08957 | –
336.65 K | 0.08944 | –
337.3 K | 0.08925 | –
337.85 K | – | 6.04e-08
338.62 K | – | 6.01e-08
339.96 K | – | 5.97e-08

CCCC(C)C [2-methylpentane]
Details | thermal conductivity [W/m/K] | thermal diffusivity [m2/s]
256.56 K | 0.1182 | –
256.89 K | 0.1181 | –
257.29 K | 0.1179 | –
257.79 K | – | 8.23e-08
258.59 K | – | 8.18e-08
259.61 K | – | 8.15e-08
277.01 K | 0.1114 | –
277.35 K | 0.1113 | –
277.8 K | 0.1111 | –
278.28 K | – | 7.65e-08
279.1 K | – | 7.61e-08
280.22 K | – | 7.57e-08
297.36 K | 0.1049 | –
297.71 K | 0.1048 | –
298.16 K | 0.1046 | –
298.66 K | – | 7.11e-08
299.5 K | – | 7.09e-08
300.57 K | – | 7.04e-08
314.15 K | 0.09989 | –
314.51 K | 0.09978 | –
314.99 K | 0.09959 | –
315.5 K | – | 6.71e-08
316.34 K | – | 6.69e-08
317.47 K | – | 6.65e-08
328.29 K | 0.09597 | –
328.64 K | 0.09583 | –
329.15 K | 0.09564 | –
329.7 K | – | 6.42e-08
330.51 K | – | 6.39e-08
331.7 K | – | 6.36e-08
